Test results from ChEMBL document CHEMBL5390265, “Design, Synthesis, and Pharmacological Evaluation of Multisubstituted Pyrido[4,3-d]pyrimidine Analogues Bearing Deuterated Methylene Linkers as Potent KRASG12D Inhibitors” (J Med Chem, 2023).
Active and inactive are the calls of the source. No cut-off for these calls is given here.

What was measured:
[1] = test system: ASPC1; assay: Antitumor activity against human ASPC1 cells xenografted in mouse assessed as inhibition of Ki-67 expression level at 10 mg/kg,ip administrated twice daily for 20 consecutive days by immunohistochemistry analysis; format: functional, organism-based; details: tested as the 2H-labelled form
[2] = target: T1, GTPase KRas (Homo sapiens, UniProt P01116); assay: Inhibition of KRAS in human ASPC1 cells assessed as downregulation of ERK phosphorylation incubated for 3 hrs by immunoblotting analysis; format: cell-based; details: tested as the 2H-labelled form
[3] = target: T1, GTPase KRas; assay: Inhibition of KRAS in human AGS cells assessed as downregulation of ERK phosphorylation at 0.65 nM incubated for 3 hrs by immunoblotting analysis; format: cell-based; details: tested as the 2H-labelled form
[4] = target: T1, GTPase KRas; assay: Inhibition of KRAS in human ASPC1 cells assessed as downregulation of AKT phosphorylation incubated for 3 hrs by immunoblotting analysis; format: cell-based; details: tested as the 2H-labelled form
[5] = test system: ASPC1; assay: Antitumor activity against human ASPC1 cells xenografted in mouse assessed as inhibition of AKT phosphorylation level at 10 mg/kg,ip administrated twice daily for 20 consecutive days by immunoblotting analysis; format: functional, organism-based; details: tested as the 2H-labelled form
[6] = test system: ASPC1; assay: Antitumor activity against human ASPC1 cells xenografted in mouse assessed as inhibition of Ki-67 expression level at 20 mg/kg,ip administrated twice daily for 20 consecutive days by immunohistochemistry analysis; format: functional, organism-based; details: tested as the 2H-labelled form
[7] = target: T1, GTPase KRas; assay: Inhibition of KRAS in human AGS cells assessed as downregulation of AKT phosphorylation incubated for 3 hrs by immunoblotting analysis; format: cell-based; details: tested as the 2H-labelled form
[8] = target: T1, GTPase KRas; assay: Inhibition of KRAS in human ASPC1 cells assessed as downregulation of AKT phosphorylation at 0.65 nM incubated for 3 hrs by immunoblotting analysis; format: cell-based; details: tested as the 2H-labelled form
[9] = target: T1, GTPase KRas; assay: Inhibition of KRAS in human AGS cells assessed as downregulation of ERK phosphorylation incubated for 3 hrs by immunoblotting analysis; format: cell-based; details: tested as the 2H-labelled form
[10] = target: T1, GTPase KRas; assay: Inhibition of KRAS in human AGS cells assessed as downregulation of AKT phosphorylation at 0.65 nM incubated for 3 hrs by immunoblotting analysis; format: cell-based; details: tested as the 2H-labelled form
[11] = test system: ASPC1; assay: Antitumor activity against human ASPC1 cells xenografted in mouse assessed as inhibition of ERK phosphorylation level at 20 mg/kg,ip administrated twice daily for 20 consecutive days by immunoblotting analysis; format: functional, organism-based; details: tested as the 2H-labelled form
[12] = target: T1, GTPase KRas; assay: Inhibition of KRAS in human ASPC1 cells assessed as downregulation of ERK phosphorylation at 6.25 to 100 nM incubated for 3 hrs by immunoblotting analysis; format: cell-based; details: dose 6.25-100 nM, tested as the 2H-labelled form
[13] = target: T1, GTPase KRas; assay: Inhibition of KRAS in human ASPC1 cells assessed as downregulation of ERK phosphorylation at 0.65 nM incubated for 3 hrs by immunoblotting analysis; format: cell-based; details: tested as the 2H-labelled form
[14] = test system: ASPC1; assay: Antitumor activity against human ASPC1 cells xenografted in mouse assessed as inhibition of AKT phosphorylation level at 20 mg/kg,ip administrated twice daily for 20 consecutive days by immunoblotting analysis; format: functional, organism-based; details: tested as the 2H-labelled form
[15] = test system: ASPC1; assay: Antitumor activity against human ASPC1 cells xenografted in mouse assessed as inhibition of ERK phosphorylation level at 10 mg/kg,ip administrated twice daily for 20 consecutive days by immunoblotting analysis; format: functional, organism-based; details: tested as the 2H-labelled form
[16] = Metabolic stability in monkey liver microsomes assessed as half life at 150 uM measured after 60 mins in presence of NADPH by LC-MS/MS analysis; format: ADME, Macaca mulatta, Microsome; details: rhesus monkey
[17] = Inhibition of recombinant human His6-tagged KRAS4B G12D mutant incubated for 1 hr by HTRF assay
[18] = Metabolic stability in monkey liver microsomes assessed as intrinsic clearance at 150 uM measured after 60 mins in presence of NADPH by LC-MS/MS analysis; format: ADME, Macaca mulatta, Microsome; details: rhesus monkey, read-out: CLH
[19] = Half life in Sprague-Dawley rat at 1 mg/kg,iv measured upto 24 hrs by LC-MS/MS analysis; format: ADME, organism-based; details: in vivo
[20] = AUC in Sprague-Dawley rat at 1 mg/kg,iv measured upto 24 hrs by LC-MS/MS analysis; format: ADME, organism-based; parameters: dose 1 mg/kg, time < 24 hrs, route iv; details: in vivo
[21] = test system: ASPC1; assay: Induction of apoptosis in human ASPC1 cells harboring […] assessed as late apoptotic cells at 25 uM incubated for 24 hrs by annexin V and propidium iodide staining based flow cytometry analysis (reference value: 6.96%); format: functional
[22] = Clearance in Sprague-Dawley rat at 1 mg/kg,iv measured upto 24 hrs by LC-MS/MS analysis; format: ADME, organism-based; details: in vivo
[23] = Metabolic stability in dog liver microsomes assessed as half life at 150 uM measured after 60 mins in presence of NADPH by LC-MS/MS analysis; format: ADME, Canis lupus familiaris, Microsome
[24] = Toxicity in mouse xenografted with human ASPC1 cells assessed as serum creatinine level at 20 mg/kg,ip administrated twice daily for 20 consecutive days (reference value: 28.2 +/- 2.1 umol/L); format: organism-based; details: in vivo
[25] = test system: ASPC1; assay: Antiproliferative activity against human ASPC1 cells harboring […] assessed as inhibition of cell growth incubated for 5 days by crystal violet staining analysis; format: functional, cell-based; details: Homo sapiens, ASPC1, 120 h
[26] = test system: A549; assay: Antiproliferative activity against human A549 cells harboring […] assessed as inhibition of cell growth incubated for 5 days by crystal violet staining analysis; format: functional, cell-based; details: Homo sapiens, A549, 120 h
[27] = test system: ASPC1; assay: Antitumor activity against human ASPC1 cells xenografted in mouse assessed as inhibition of tumor growth at 20 mg/kg,ip administrated twice daily for 20 consecutive days relative to control; format: functional; details: read-out: TGI
[28] = test system: AGS; assay: Antiproliferative activity against human AGS cells harboring […] assessed as inhibition of cell growth incubated for 5 days by crystal violet staining analysis; format: functional, cell-based; details: Homo sapiens, AGS, 120 h
[29] = Metabolic stability in rat liver microsomes assessed as intrinsic clearance at 150 uM measured after 60 mins in presence of NADPH by LC-MS/MS analysis; format: ADME, Microsome; details: read-out: CLH
[30] = test system: NCI-H1299; assay: Antiproliferative activity against human NCI-H1299 cells harboring KRAS wild type assessed as inhibition of cell growth incubated for 5 days by crystal violet staining analysis; format: functional, cell-based; details: NCI-H1299, 120 h
[31] = test system: ASPC1; assay: Induction of apoptosis in human ASPC1 cells harboring […] assessed as early apoptotic cells at 25 uM incubated for 24 hrs by annexin V and propidium iodide staining based flow cytometry analysis (reference value: 5.22%); format: functional
[32] = test system: AGS; assay: Induction of apoptosis in human AGS cells harboring […] assessed as early apoptotic cells at 25 uM incubated for 24 hrs by annexin V and propidium iodide staining based flow cytometry analysis (reference value: 4.05%); format: functional
[33] = test system: AGS; assay: Induction of apoptosis in human AGS cells harboring […] assessed as late apoptotic cells at 25 uM incubated for 24 hrs by annexin V and propidium iodide staining based flow cytometry analysis (reference value: 7.74%); format: functional
[34] = Toxicity in mouse xenografted with human ASPC1 cells assessed as serum blood urea nitrogen level at 20 mg/kg,ip administrated twice daily for 20 consecutive days (reference value: 16.3 +/- 1.6 mmol/L); format: organism-based; details: in vivo
[35] = Metabolic stability in rat liver microsomes assessed as half life at 150 uM measured after 60 mins in presence of NADPH by LC-MS/MS analysis; format: ADME, Microsome
[36] = Metabolic stability in dog liver microsomes assessed as intrinsic clearance at 150 uM measured after 60 mins in presence of NADPH by LC-MS/MS analysis; format: ADME, Canis lupus familiaris, Microsome; details: read-out: CLH
[37] = target: T1, GTPase KRas; assay: Inhibition of recombinant human GTP-bound KRAS wild type (1 to 169 residues) incubated for 1 hr by HTRF assay
[38] = test system: ASPC1; assay: Antitumor activity against human ASPC1 cells xenografted in mouse assessed as inhibition of tumor growth at 10 mg/kg,ip administrated twice daily for 20 consecutive days relative to control; format: functional; details: read-out: TGI

SMILES | inhibition [2] | inhibition [3] | inhibition [4] | inhibition [7] | inhibition [8] | inhibition [9] | inhibition [10] | inhibition [12] | inhibition [13] | IC50 [17] | half-life [19] | AUC at 24 h [20] | clearance [22] | IC50 [25] | Activity [1] | Activity [5] | Activity [6] | Activity [11] | Activity [14] | Activity [15] | further results
C#Cc1c(F)ccc2cc(O)cc(-c3ncc4c(NCC5(N(C)C)CCC5)nc(OCC56CCCN5CC(=C(F)F)C6)nc4c3F)c12 (configuration not stated) | Dose-Dependent Effect | – | Dose-Dependent Effect | Dose-Dependent Effect | – | Dose-Dependent Effect | – | – | – | – | – | – | – | – | Active | Active | Active | Active | Active | Active | –
C#Cc1c(F)ccc2cc(O)cc(-c3ncc4c(N5C[C@H]6CC[C@@H](C5)N6)nc(OC[C@@]56CCCN5C[C@H](F)C6)nc4c3F)c12 | – | – | – | – | – | – | – | – | – | 1.24 nM | 1.1 h | 188 ng·h/mL | 91.7 mL/min/kg | 7.9 nM | – | – | – | – | – | – | half-life at 150 µM [16]: 0.568 h; microsomal CLint at 150 µM [18]: 40.6 µL/min/mg; Activity [21]: 12.1%; half-life at 150 µM [23]: 1.38 h; Activity [24]: 24.7 µmol/L; IC50 [26]: > 5000 nM; inhibition in vivo at 20 mg/kg [27]: 73.3%; IC50 [28]: 1.4 nM; microsomal CLint at 150 µM [29]: 8 µL/min/mg; IC50 [30]: > 5000 nM; Activity [31]: 8.65%; Activity [32]: 9.27%; Activity [33]: 10.4%; Activity [34]: 14 mmol/L; half-life at 150 µM [35]: 2.88 h; microsomal CLint at 150 µM [36]: 16.8 µL/min/mg
[2H]C([2H])(Oc1nc(NCC2(N(C)C)CCC2)c2cnc(-c3cc(O)cc4ccc(F)c(C#C)c34)c(F)c2n1)C12CCCN1CC(=C(F)F)C2 (configuration not stated) | – | – | – | – | – | – | – | – | – | 1.21 nM | 6.91 h | 562 ng·h/mL | 33.4 mL/min/kg | 1.7 nM | – | – | – | – | – | – | IC50 [37]: 18.5 nM; IC50 [26]: 499 nM; inhibition in vivo at 20 mg/kg [27]: 68.4%; IC50 [28]: 0.6 nM; IC50 [30]: 1820 nM; inhibition in vivo at 10 mg/kg [38]: 54.7%

Second part, led by results:

inhibition [2] | inhibition [3] | inhibition [4] | inhibition [7] | inhibition [8] | inhibition [9] | inhibition [10] | inhibition [12] | inhibition [13] | IC50 [17] | half-life [19] | AUC at 24 h [20] | clearance [22] | IC50 [25] | SMILES | Activity [1] | Activity [5] | Activity [6] | Activity [11] | Activity [14] | Activity [15] | further results
Dose-Dependent Effect | Active | Dose-Dependent Effect | Dose-Dependent Effect | Active | Dose-Dependent Effect | Active | > 90% | Active | – | – | – | – | – | C#Cc1c(F)ccc2cc(O)cc(-c3ncc4c(N5C[C@H]6CC[C@@H](C5)N6)nc(OCC56CCCN5CC(=C(F)F)C6)nc4c3F)c12 (some centres not stated) | Active | Active | Active | Active | Active | Active | –
Dose-Dependent Effect | Active | Dose-Dependent Effect | Dose-Dependent Effect | Active | Dose-Dependent Effect | Active | > 90% | Active | – | – | – | – | – | C#Cc1c(F)ccc2cc(N)cc(-c3ncc4c(N5C[C@H]6CC[C@@H](C5)N6)nc(OCC56CCCN5CC(=C(F)F)C6)nc4c3F)c12 (some centres not stated) | Active | Active | Active | Active | Active | Active | –
